Experimental findings from ChEMBL document CHEMBL1938368, “Structure-activity relationship of naphthaldehydethiosemicarbazones in melanogenesis inhibition” (Bioorg Med Chem Lett, 2012) are described below.

The test system of assay [1] is B16. Put plainly: Antimelanogenic activity at alpha-MSH-stimulated mouse melanoma B16 cells at 10 uM after 3 days by spectrophotometry. Format: functional. To be noted: B16, 72 h.
Assay [2] has as its system B16. Put plainly: Antimelanogenic activity at alpha-MSH-stimulated mouse melanoma B16 cells after 3 days by spectrophotometry. It is filed as functional, cell-based. To be noted: B16, 72 h.

As to `Cc1cccc(NC(=S)N/N=C/c2cccc3ccccc23)c1`, the inhibition at 10 µM in the assay on B16 [1] was greater than 100%. Moreover, in the assay with B16 [2], the midpoint of inhibition, the IC50, lay at 450 nM.

`S=C(N/N=C/c1cccc2ccccc12)Nc1ccc(Cl)cc1` had an inhibition at 10 µM in the assay with B16 [1] greater than 100%. The compound also had an IC50 with B16 [2] of 1900 nM.

In turn, `CCNC(=S)N/N=C/c1cccc2ccccc12` showed an inhibition at 10 µM in the assay with B16 [1] greater than 100%. Also, half-maximal inhibition with B16 [2] (IC50) was put at 1100 nM.

As to `CN(C)C(=S)N/N=C/c1cccc2ccccc12`, the inhibition at 10 µM with B16 [1] was greater than 100%. In the assay with B16 [2], this compound displayed an IC50 of 280 nM.

In the assay on B16 [1], `CN(/N=C/c1cccc2ccccc12)C(N)=S` returned an inhibition at 10 µM greater than 100%. Further, the midpoint of inhibition in the assay on B16 [2], the IC50, lay at 1600 nM.

In the assay on B16 [1], `Cc1ccc(NC(=S)N/N=C/c2cccc3ccccc23)cc1` displayed an inhibition at 10 µM greater than 100%. For the same compound, in the assay with B16 [2], the IC50 was 580 nM.

As to `COc1ccccc1NC(=S)N/N=C/c1cccc2ccccc12`, in the assay with B16 [1], the inhibition at 10 µM is greater than 100%. The IC50 with B16 [2] was found to be 920 nM.

`S=C(NCc1ccccc1)N/N=C/c1cccc2ccccc12`: the inhibition at 10 µM in the assay with B16 [1] was greater than 100%. For the same compound, in the assay with B16 [2], 270 nM corresponded to half-maximal inhibition (IC50).

With `CN(C)C(=S)N(C)/N=C/c1cccc2ccccc12`, the inhibition at 10 µM with B16 [1] is 76%. This compound also came in with an IC50 in the assay on B16 [2] of 8600 nM.

`Cc1ccccc1NC(=S)N/N=C/c1cccc2ccccc12`: in the assay with B16 [1], the inhibition at 10 µM was greater than 100%. Moreover, it took 490 nM to reach half-maximal inhibition with B16 [2] (IC50).

`COc1ccc(NC(=S)N/N=C/c2cccc3ccccc23)cc1` had an inhibition at 10 µM in the assay on B16 [1] greater than 100%. In the assay on B16 [2], the IC50 came to 860 nM.

`S=C(N/N=C/c1cccc2ccccc12)NC1CCCCC1` returned an inhibition at 10 µM with B16 [1] greater than 100%. The same compound showed an IC50 with B16 [2] of 290 nM.

In the assay with B16 [1], `S=C(N/N=C/c1cccc2ccccc12)Nc1ccccc1` yielded an inhibition at 10 µM greater than 100%. In the assay on B16 [2], the IC50 stood at 500 nM.

In turn, `COc1cccc(NC(=S)N/N=C/c2cccc3ccccc23)c1` displayed an inhibition at 10 µM in the assay on B16 [1] greater than 100%. Besides, it took 830 nM to reach half-maximal inhibition in the assay on B16 [2] (IC50).

For the compound `CNC(=S)N/N=C/c1cccc2ccccc12`, the inhibition at 10 µM in the assay with B16 [1] is greater than 100%. Moreover, the IC50 with B16 [2] was 2000 nM.

In the assay with B16 [1], `NC(=O)N/N=C/c1cccc2ccccc12` returned an inhibition at 10 µM of less than 10%. The same compound came in with an IC50 in the assay with B16 [2] greater than 100000 nM.

The inhibition is the drop in the measured response relative to a control, in per cent. Usually IC50 stands for the concentration that inhibits the measured activity by half. A higher IC50 goes with a need for much substance.
